Assays:
HepG2 cells [1] = test: Metabolite formation in medium after 24 h incubation with HepG2 cells (HPLC-UV, qToF); assay type: in vitro ADME, human; conditions: 100 μM, 24 h with HepG2 cells, vs spiked medium without cells
Experimental: Additionally, the removed non-spiked and spiked medium after 24 h of cell incubation was measured by the UPLC-DAD system (see Section Stability of 4-Hydroxythiazolidine-2-Thiones in a Stomach Model) and HPLC method 2 at 280 ± 2 nm and after 10-fold pre-concentration, using solid-phase extraction (Chromabond®, C18, 3 mL/500 mg, Macherey-Nagel) by an HPLC-DAD-ESI-qToF system (Agilent 1290 Infinity II for the binary pump, Agilent 1290 Infinity for autosampler, degasser, column oven, Agilent 1260 Infinity for DAD detector, and Agilent 1260 Infinity II, for an isocratic pump for adding reference mass solution) using A = water and B = MeCN: 0 to 3 min 2% B, an increase to 14 min up to 98% B, holding for 5.4 min followed by a decrease to 2% B at 20 min, and re-equilibration with 2% B for 4.5 min, using a flow rate of 300 μL/min, Agilent Zorbax Eclipse Plus C8 column (see Section Stability of 4-Hydroxythiazolidine-2-Thiones in a Stomach Model), and a column oven temperature of 35°C. […]

[2] = Determination of log P (octanol/water); assay type: physicochemical; conditions: room temperature; for concentration ratio in the octanol phase compared to the water phase: 18 h, triplicates; for logP at 18 h: octanol/water
Experimental: For the determination of log P of the HTTs, two solutions were used: water saturated with octanol and octanol saturated with water. […] The spiked octanol-water mixture was vortexed for 30 s and the mixture was incubated for 18 h at room temperature to obtain analyte equilibrium distribution. For determination of the log P-value, 50 μL of the water phase was taken and measured by HPLC-UV at 274 ± 2 nm with HPLC method 2 (see Section Stability of 4-Hydroxythiazolidine-2-Thiones in a Stomach Model) with an injection volume of 10 μL. The analyte concentration in the water phase was determined by using external calibration. The relative analyte content in the water phase was calculated by using the following equation:
analyte content in water phase in % =measured concentration in water phase of the mixture/2 · concentration in pure water reference ·100%
The relative analyte content in the octanol phase was calculated at 100% minus the relative analyte concentration in the water phase. The reported results are the mean ± SD of the three determined log P-values for the three repetitions.

Caco-2 cells [3] = test: Cytotoxicity, neutral red uptake assay; assay type: cell-based, human; conditions: Caco-2, neutral red uptake assay, up to 100 μM, 24 h
Experimental: (§1) To determine the cytotoxicity of allyl HTT and 4-MSOB HTT, HepG2 and Caco-2 cells were seeded in a 96-well TC-plate (standard F, sterile, from Sarsted, Nümbrecht, Germany) using a seeding density of 20,000 cells/well. After 24 h, the medium was exchanged to 200 μL pure medium or 200 μL medium containing allyl HTT or 4-MSOB HTT with concentrations in the range of 0.1–100 μM. The cells were treated for 24 h under cell culture conditions (prepared for three biological replicates, every 3 technical replicates). Cell viability was determined using the MTT assay and the neutral red uptake assay based on Schröter et al. ([27]). In the case of MTT assay, after 24 h of HTT treatment, 20 μL of MTT solution (75 mg MTT in 15 mL PBS) were added, and cells were incubated for 60 min under cell culture conditions. Afterward, the supernatant was removed and 100 μL of lysis buffer (5% formic acid in isopropanol) was added and the plate was shaken for 10 min at 300 rpm before measuring the absorption at 550 ± 5 nm (reference 690 ± 5 nm) by a Tecan i-control Infinite M200 PRO plate reader (Crailsheim, Germany). In the case of the neutral red uptake assay, the supernatant was removed after 24 h HTT treatment, and 100 μL neutral red solution (40 mg neutral red in 10 mL PBS, freshly diluted 1:100 with medium and incubated for 24 h under cell culture conditions) was added. After incubation of neutral red solution for 2 h under cell culture conditions, the supernatant was removed, and cells were washed with 150 μL of PBS. After removing PBS, 150 μL desorb solution (49.5% water/49.5% ethanol/1% acetic acid) was added and the plate was shaken for 10 min at 300 rpm before measuring the absorption at 540 ± 5 nm by Tecan i-control Infinite M200 PRO plate reader. The mean ± SD is used for presenting the results of three technical replicates for each data point of the three biological replicates.

HepG2 cells [4] = test: Cytotoxicity, neutral red uptake assay; assay type: cell-based, human; conditions: up to 100 μM, 24 h
Experimental: as §1

Caco-2 cells [5] = test: Cytotoxicity, MTT assay; assay type: cell-based, human; conditions: Caco-2, MTT assay, up to 100 μM, 24 h
Experimental: as §1

HepG2 cells [6] = test: Cytotoxicity, MTT assay; assay type: cell-based, human; conditions: up to 100 μM, 24 h
Experimental: as §1

[7] = design: method as in PMID 35761548; conditions: recently calculated; cited from earlier work

Compound | newly formed metabolites in spiked medium (LC-UV chromatogram) (HepG2 cells [1]) | concentration ratio in the octanol phase compared to the water phase [2] | logP at 18 h [2] | effect on cell viability compared to untreated cells (Caco-2 cells [3]) | effect on cell viability compared to untreated cells (HepG2 cells [4]) | effect on cell viability compared to untreated cells (Caco-2 cells [5]) | effect on cell viability compared to untreated cells (HepG2 cells [6]) | calculated log P (partition coefficient in octanol/water) [7]
C=CCN1C(=S)SCC1O (stereo not shown) [allyl HTT, 3-allyl-4-hydroxythiazolidine-2-thione] | did not show any additional signals | 8.1 ± 0.4 | 0.91 ± 0.02 | did not show any effect on cell viability | did not show any effect on cell viability | did not show any effect on cell viability | did not show any effect on cell viability | 0.47
C[S+]([O-])CCCCN1C(=S)SCC1O (stereo not shown) [4-MSOB HTT, 4-hydroxy-3-(4-(methylsulfinyl)butyl)thiazolidine-2-thione] | a new peak was observed | 0.45 ± 0.04 | -0.35 ± 0.04 | did not show any effect on cell viability | did not show any effect on cell viability | did not show any effect on cell viability | did not show any effect on cell viability | −1.12
